Our source for the IC50 values is BindingDB's records for doi:10.7270/Q2F769ZM (The Scripps Research Institute Molecular Screening Center, 2007).

Structures can show the parent of a compound that is named as a salt.

Rho-associated protein kinase 2, sequence (O75116 whole entry): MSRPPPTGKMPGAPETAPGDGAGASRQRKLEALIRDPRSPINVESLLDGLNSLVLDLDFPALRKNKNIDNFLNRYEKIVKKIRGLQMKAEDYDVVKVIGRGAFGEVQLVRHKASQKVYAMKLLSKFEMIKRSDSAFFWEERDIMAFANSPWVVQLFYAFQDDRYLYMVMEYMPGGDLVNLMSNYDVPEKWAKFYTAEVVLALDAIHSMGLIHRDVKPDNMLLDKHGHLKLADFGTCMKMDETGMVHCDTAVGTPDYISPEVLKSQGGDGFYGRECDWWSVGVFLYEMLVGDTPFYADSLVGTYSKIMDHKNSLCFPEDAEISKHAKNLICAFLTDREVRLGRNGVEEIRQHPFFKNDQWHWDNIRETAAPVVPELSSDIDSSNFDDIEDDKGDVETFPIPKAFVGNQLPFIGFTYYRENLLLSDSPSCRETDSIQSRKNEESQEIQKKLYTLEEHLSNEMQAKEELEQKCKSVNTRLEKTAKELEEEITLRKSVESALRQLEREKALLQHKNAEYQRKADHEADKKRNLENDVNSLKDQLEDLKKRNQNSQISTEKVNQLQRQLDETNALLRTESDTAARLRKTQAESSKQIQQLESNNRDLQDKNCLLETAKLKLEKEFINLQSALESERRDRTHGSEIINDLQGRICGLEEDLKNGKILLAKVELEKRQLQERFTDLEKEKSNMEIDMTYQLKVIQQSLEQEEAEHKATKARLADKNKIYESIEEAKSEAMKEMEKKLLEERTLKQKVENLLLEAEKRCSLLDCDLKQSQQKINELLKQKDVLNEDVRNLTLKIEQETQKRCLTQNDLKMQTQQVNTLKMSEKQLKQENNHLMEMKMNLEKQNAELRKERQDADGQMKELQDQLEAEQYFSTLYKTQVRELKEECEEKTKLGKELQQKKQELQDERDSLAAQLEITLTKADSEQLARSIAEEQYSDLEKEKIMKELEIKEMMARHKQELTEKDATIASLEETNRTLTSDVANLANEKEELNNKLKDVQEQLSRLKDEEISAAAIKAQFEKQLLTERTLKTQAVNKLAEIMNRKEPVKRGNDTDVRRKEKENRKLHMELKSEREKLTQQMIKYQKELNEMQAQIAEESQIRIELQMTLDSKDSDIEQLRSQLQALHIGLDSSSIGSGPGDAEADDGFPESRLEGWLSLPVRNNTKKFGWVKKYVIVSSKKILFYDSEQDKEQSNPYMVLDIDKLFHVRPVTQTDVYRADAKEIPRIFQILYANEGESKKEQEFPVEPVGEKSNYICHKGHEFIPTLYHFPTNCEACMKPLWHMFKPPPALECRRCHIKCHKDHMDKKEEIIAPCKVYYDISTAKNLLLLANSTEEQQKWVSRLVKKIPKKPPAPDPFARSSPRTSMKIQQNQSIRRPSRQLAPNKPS

One assay has as its target Rho-associated protein kinase 2 (Homo sapiens, UniProt O75116). Kind of assay: ROCK2 kinase inhibitor potency, dose response, biochemical, Kinase-Glo luminescence, S6 peptide, 1536-well (AID 644).
Conditions: not given
The compound `CC(C)C(NC(=O)C1CCCCC1)C(=O)Nc1ccncc1` (stereo unspecified) [MLS000090506] yielded an IC50 of 2.3 µM.

With `C1=C(c2c[nH]c3ccccc23)CCNC1`, it took 2.53 µM to reach half-maximal inhibition (IC50).

`COc1ccc2c(Cl)c(C(N)=O)sc2c1` [3-Chloro-6-methoxy-benzo[b]thiophene-2-carboxylic acid amide] registered an IC50 of 6.83 µM.

`O=C(O)c1cc(NCc2ccc3c(c2)OCO3)ccc1N1CCOCC1` [2-morpholino-5-(piperonylamino)benzoic acid] registered an IC50 of over 59.6 µM.

`Cc1cc(NC(=O)CSc2nc(-c3ccccc3)cs2)no1` [MLS000066259] returned an IC50 of over 59.6 µM.

As for `CN(C(=O)c1cccc(-n2c(O)c3c(c2O)CC=CC3)c1)C1CCCCC1` [3-[1,3-bis(oxidanylidene)-3a,4,7,7a-tetrahydroisoindol-2-yl]-N-cyclohexyl-N-methyl-benzamide], the IC50 is over 59.6 µM.

Compound `Cc1cc(N2CCOCC2)c2c(N)c(C)cc(C)c2n1` [(2,6,8-trimethyl-4-morpholino-5-quinolyl)amine] displayed an IC50 of over 59.6 µM.

`Cn1c(C(=O)N2CCCC(C(=O)N3CCN(C(=O)c4ccco4)CC3)C2)cc2sccc21` (stereo unspecified) [MLS000119519] yielded an IC50 of over 59.6 µM.

Consider `CCOC(=O)C1=C(CSc2nc(-c3ccncc3)ccc2C#N)OC(=N)C(C#N)C1c1cccnc1` (stereo unspecified) [6-amino-5-cyano-2-[[(3-cyano-6-pyridin-4-yl-2-pyridinyl)thio]methyl]-4-(3-pyridinyl)-4H-pyran-3-carboxylic acid ethyl ester], for which the IC50 is over 19.9 µM.

`CN(CCO)c1ncnc2nc[nH]c12` [MLS000101269] displayed an IC50 of 7.91 µM.

Consider `N#Cc1c(N=Cc2ccco2)sc2c1CCCCC2` [2-(2-furanylmethylideneamino)-5,6,7,8-tetrahydro-4H-cyclohepta[b]thiophene-3-carbonitrile], for which the IC50 is over 19.9 µM.

As to `O=NCc1c[nH]c2ccccc12` [MLS000104363], inhibition was half-maximal at 4.81 µM (IC50).

As to `CC(=O)n1cc(-c2ccncc2)c2ccccc21` [1-(3-pyridin-4-yl-1-indolyl)ethanone;hydrochloride], the IC50 was 8.16 µM.

`Cc1cccc2cc(=O)[nH]c(C)c12` [1,8-dimethyl-2H-isoquinolin-3-one] showed an IC50 of over 59.6 µM.

`c1cn(CCCNc2ncnc3nc[nH]c23)cn1` [N-[3-(1-imidazolyl)propyl]-7H-purin-6-amine] yielded an IC50 of 6.18 µM.

On to `CC(C)[C@H]1C(=O)N2CCC[C@H]2[C@]2(O)O[C@](NC(=O)[C@@H]3C=C4c5cccc6[nH]cc(c56)C[C@H]4N(C)C3)(C(C)C)C(=O)N12` [ERGOCORNINE], for which the IC50 was over 59.6 µM.

In turn, `O=C1NC(=O)c2cc(NC(=O)C3CCCCC3)ccc21` [MLS000062910] yielded an IC50 of over 19.9 µM.

Regarding `c1ccc2c(-c3ccncc3)c[nH]c2c1`, the IC50 amounted to 0.8 µM.

On to `CC(=O)c1cccc(NC(=O)NCc2cccs2)c1` [1-(3-acetylphenyl)-3-(2-thenyl)urea], for which the IC50 is over 59.6 µM.

For the compound `NC(=O)c1sc2nc3c(c(-c4ccco4)c2c1N)CCC3` [3-amino-4-(2-furyl)-6,7-dihydro-5H-cyclopenta[b]thieno[3,2-e]pyridine-2-carboxamide], the half-inhibitory concentration (IC50) was over 59.6 µM.

Compound `Cc1[nH]nc2c1C(c1ccc(-c3ccccc3C#N)o1)C(C#N)C(=N)O2` (stereo unspecified) showed an IC50 of over 19.9 µM.

In turn, `c1coc(CNc2ncnc3sc4c(c23)CCCCC4)c1` [2-furfuryl(6,7,8,9-tetrahydro-5H-cyclohepta[4,5]thieno[1,2-c]pyrimidin-4-yl)amine] displayed a half-inhibitory concentration (IC50) of over 59.6 µM.

With `O=C(CSc1nnc(-c2ccncc2)[nH]1)c1ccccc1`, the 50% inhibitory concentration (IC50) is 0.765 µM.

For the compound `COc1cc(N=CC2C(=O)Nc3ccccc32)cc(OC)c1OC` (stereo unspecified), inhibition was half-maximal at 10.5 µM (IC50).

Compound `CCCCC(=O)Nc1ccc2c(c1)C(=O)NC2=O` [MLS000103070] gave an IC50 of over 19.9 µM.

As for `O=C(Nc1nc(-c2ccncc2)cs1)C1COc2ccccc2O1` (stereo unspecified), the IC50 was under 0.00303 µM.

The compound `Cn1c(CSCc2ccc(Cl)c(Cl)c2)nnc1SCC(=O)Nc1nccs1` [2-[(5-{[(3,4-dichlorobenzyl)thio]methyl}-4-methyl-4H-1,2,4-triazol-3-yl)thio]-N-1,3-thiazol-2-ylacetamide] returned a half-inhibitory concentration (IC50) of over 19.9 µM.

Compound `CCN(CC)CCNC(=O)CCCCn1c(=S)[nH]c2c([nH]c3ccc(OC)cc32)c1=O` [N-[2-(diethylamino)ethyl]-5-(8-methoxy-4-oxo-2-thioxo-1,2,4,5-tetrahydro-3H-pyrimido[5,4-b]indol-3-yl)pentanamide] gave an IC50 of over 19.9 µM.

The same assay, now with this note: inactive by the depositor's call.
For the compound `CC(=O)c1cc(C#N)c(SCc2ccncc2)nc1C` [5-acetyl-6-methyl-2-(4-pyridylmethylthio)nicotinonitrile], the 50% inhibitory concentration (IC50) was 12.3 µM.

As for `O=C(c1ccccc1)c1ccc2[nH]cnc2c1` [MLS000034982], the IC50 came to 16.3 µM.

For `Cc1ccc(SCc2nc(-c3ccncc3)no2)cc1` [4-(5-{[(4-methylphenyl)thio]methyl}-1,2,4-oxadiazol-3-yl)pyridine], inhibition was half-maximal at 42.6 µM (IC50).

As to `O=C(CCCOc1ccccc1)Nc1ccncc1` [4-Phenoxy-N-pyridin-4-yl-butyramide], half-maximal inhibition (IC50) was put at 14.2 µM.

`O=C(CSc1nc(-c2ccc(F)cc2)c[nH]1)Nc1cccc(O)c1` [2-[5-(4-Fluoro-phenyl)-1H-imidazol-2-ylsulfanyl]-N-(3-hydroxy-phenyl)-acetamide]: half-maximal inhibition (IC50) was put at 23.4 µM.

As to `CCOC1(OCC)N=C(N)C2(C#N)C(c3ccc(NC(C)=O)cc3)C12C#N` (stereo unspecified) [MLS000085499], the IC50 turned out to be 445 µM.

`Cc1c(C)n(C)c2ccc(C(=O)NCc3cccs3)cc12` [1,2,3-trimethyl-N-(2-thenyl)indole-5-carboxamide] registered a half-inhibitory concentration (IC50) of 12 µM.

For the compound `N#Cc1cccc(NC(=O)NCCc2c[nH]c3ccccc23)c1` [SMR000096894], the IC50 came out at 16.1 µM.

`Nc1cccc2cnccc12` [isoquinolin-5-amine] displayed an IC50 of 30.1 µM.

With `CCN1CCN(Cc2nnnn2C(C)(C)C)CC1` [1-(1-tert-Butyl-1H-tetrazol-5-ylmethyl)-4-ethyl-piperazine], the IC50 was 17.4 µM.

As to `Cc1ccc2c(c1)c1c3n2CCN(C(=O)Cn2c(-c4ccccc4)noc2=O)C3CCC1` (stereo unspecified) [4-[2-(8-Methyl-1,2,3a,4,5,6-hexahydro-pyrazino[3,2,1-jk]carbazol-3-yl)-2-oxo-ethyl]-3-phenyl-4H-[1,2,4]oxadiazol-5-one], inhibition was half-maximal at 18.8 µM (IC50).

Take `Cc1c(C(=O)Nc2ccc3oc(-c4cccnc4)nc3c2)oc2ccccc12` [3-Methyl-benzofuran-2-carboxylic acid (2-pyridin-3-yl-benzooxazol-5-yl)-amide]: half-maximal inhibition (IC50) was put at 1010 µM.

Consider `Cc1c(C(=O)N2CCCCC2)sc(N)c1C#N` [2-amino-4-methyl-5-(piperidine-1-carbonyl)thiophene-3-carbonitrile], for which half-maximal inhibition (IC50) required 86.7 µM.

Regarding `c1coc(CNc2ncnc3[nH]cnc23)c1`, 21.4 µM corresponded to half-maximal inhibition (IC50).

As for `COc1ccc(N2CCN(c3ncnc4[nH]cnc34)CC2)cc1` [MLS000101243], the IC50 stood at 16.5 µM.

On to `N#Cc1cc2c(nc1SCc1ccncc1)CCC2` [2-(4-pyridylmethylthio)-1-pyrindan-3-carbonitrile], for which the IC50 was determined as 20.5 µM.

Consider `CN(C)c1ccc(-c2ccncc2)cc1` [MLS000105960], for which the IC50 turned out to be 31.8 µM.

`COCCN(CCOC)S(=O)(=O)c1ccc(C(=O)Nc2nc(-c3ccncc3)cs2)cc1` [4-[bis(2-methoxyethyl)sulfamoyl]-N-(4-pyridin-4-yl-1,3-thiazol-2-yl)benzamide] returned an IC50 of 41.2 µM.

By IC50 is commonly meant the midpoint of a concentration-inhibition curve.
